The target in data set [1] is TMPRSS2 (human recombinant) (Homo sapiens, UniProt O15393). The format is biochemical. The conditions noted are these: ratio of IC50 values.
In data set [2] the target is Furin (human recombinant aa108–715) (Homo sapiens, UniProt P09958). In words: biochemical.
The next data set addresses CATSB (human liver) (Homo sapiens, UniProt P07858). Nature of the data set: biochemical.
The target of another data set is CATSL (human liver) (Homo sapiens, UniProt P07711). In words: biochemical.
Chain of CATSL (human liver) (P07711 114-333): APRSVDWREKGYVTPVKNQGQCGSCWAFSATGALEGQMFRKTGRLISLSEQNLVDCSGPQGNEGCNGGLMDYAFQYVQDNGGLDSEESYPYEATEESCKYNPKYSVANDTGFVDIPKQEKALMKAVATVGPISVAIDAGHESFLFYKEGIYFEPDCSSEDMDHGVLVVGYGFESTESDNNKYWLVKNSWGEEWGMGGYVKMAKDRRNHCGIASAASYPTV
For data set [3] the following is noted: cited from earlier work.

Starred links: 1 amine or outer side, 2 acyl side, 3 side chain; linkers in the order of their positions; H or OH if unused. Residues, ends and D or L forms follow the SMILES beside them. CO = O=C([*:1])[*:2]

Chain of TMPRSS2 (human recombinant) (O15393 whole entry, the tested form may be a part): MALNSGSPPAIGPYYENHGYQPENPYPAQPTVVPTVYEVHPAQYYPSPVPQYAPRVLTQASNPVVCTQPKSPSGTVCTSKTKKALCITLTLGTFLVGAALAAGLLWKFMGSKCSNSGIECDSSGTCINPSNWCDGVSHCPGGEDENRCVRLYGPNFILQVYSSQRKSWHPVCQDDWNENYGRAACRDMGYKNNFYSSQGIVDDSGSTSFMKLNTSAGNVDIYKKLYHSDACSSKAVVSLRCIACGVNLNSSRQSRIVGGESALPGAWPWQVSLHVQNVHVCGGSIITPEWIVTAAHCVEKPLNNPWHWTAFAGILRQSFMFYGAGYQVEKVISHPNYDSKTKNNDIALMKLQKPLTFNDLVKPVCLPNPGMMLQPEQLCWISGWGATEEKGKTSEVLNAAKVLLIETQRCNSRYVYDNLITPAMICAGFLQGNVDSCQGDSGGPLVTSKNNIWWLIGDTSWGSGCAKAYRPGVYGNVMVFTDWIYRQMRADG
Chain of Furin (human recombinant aa108–715) (P09958 108-715): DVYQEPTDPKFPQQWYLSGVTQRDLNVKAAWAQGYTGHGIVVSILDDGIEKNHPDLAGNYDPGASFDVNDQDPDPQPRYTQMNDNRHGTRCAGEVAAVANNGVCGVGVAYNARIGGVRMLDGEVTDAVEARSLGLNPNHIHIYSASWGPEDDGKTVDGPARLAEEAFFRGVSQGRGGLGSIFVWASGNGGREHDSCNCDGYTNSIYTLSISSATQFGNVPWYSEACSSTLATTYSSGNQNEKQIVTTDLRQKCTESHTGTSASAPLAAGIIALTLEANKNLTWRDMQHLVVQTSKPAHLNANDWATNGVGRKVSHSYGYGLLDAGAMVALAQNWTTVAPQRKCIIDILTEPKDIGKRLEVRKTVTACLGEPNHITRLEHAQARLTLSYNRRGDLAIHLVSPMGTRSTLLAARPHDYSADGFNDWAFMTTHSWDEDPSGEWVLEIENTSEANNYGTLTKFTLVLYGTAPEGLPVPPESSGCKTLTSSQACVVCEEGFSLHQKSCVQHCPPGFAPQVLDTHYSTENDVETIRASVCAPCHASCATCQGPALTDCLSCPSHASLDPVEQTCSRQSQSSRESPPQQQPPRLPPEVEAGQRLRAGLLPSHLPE

Consider `CC(C)[C@H](NC(=O)[C@H](CCCNC(=N)N)NC(=O)N[C@@H](Cc1ccccc1)C(=O)O)C(=O)N[C@H](C=O)CCCNC(=N)N` [antipain, L‐Phe‐CO‐L‐Arg‐L‐Val‐L‐Arg‐H] ({Phe-CO}-Arg-Val-Arg-aldehyde), for which the “increase in TMPRSS2 potency over BC-11” value in data set [1] was 2 fold. Also, the IC50 was found to be 4170 nM in data set [2], 24.1 nM against CATSB (human liver) and 2.74 nM at CATSL (human liver).
Regarding `CN(C)C(=O)COC(=O)Cc1ccc(OC(=O)c2ccc(NC(=N)N)cc2)cc1` [camostat], the plasma half-life entry in data set [3] is listed as “approximately an hour or less”.
Regarding `N=C(N)c1ccc2cc(OC(=O)c3ccc(N=C(N)N)cc3)ccc2c1` [nafamostat], the plasma half-life result in data set [3] is recorded as “approximately an hour or less”.

(Values after PMC9874818 (Archiv Der Pharmazie, 2022).)
